# Laboratory results published in patent USRE31588E, “Imidazolylmethylthioethyl alkynyl guanidines” (Bristol-Myers Company, priority 1981, dated 1984).
# “Also recorded” adds a separate entry of the source.
# How the values were obtained:
# [1] = biological target: T1, histamine H2-receptors (isolated, spontaneously beating guinea pig right atria) (Cavia porcellus, UniProt P47747); conditions: cited from earlier work
# [2] = biological target: T1, histamine H2-receptors (isolated, spontaneously beating guinea pig right atria); assay: Histamine H2-receptor antagonism, isolated guinea pig atria assay; assay type: cell-based; design: The spontaneously beating right atrium was dissected free from other tissues; from tissue; host or cells: isolated, spontaneously beating right atrium of male Hartley guinea pigs; conditions: for Histamine ED50 (concentration of histamine which increased contractile rate 50% of maximum) after test compound: test compound 1 × 10^-5 M, 30 minute incubation
# Protocol: Subsequent investigations by Hughes and Coret, Proc. Soc. […] Black et al., Agents and Actions, 3, 133 (1973) and Brimblecombe et al., Fed. […] The present comparative studies were carried out using a modification of the procedure reported by Reinhardt et al., Agents and Actions, 4, 217 (1974).
# Male Hartley strain guinea pigs (350-450 gm.) were sacrificed by a blow on the head. The heart was excised and placed in a Petri dish of oxygenated (95% O2, 5% CO2) modified Krebs solution (g./liter: NaCl 6.6, KCl 0.35, MgSO4. 7 H2 O 0.295, KH2 PO4 0.162, CaCl2 0.238, NaHCO3 2.1 and dextrose 2.09). The spontaneously beating right atrium was dissected free from other tissues and a silk thread (4-0) attached to each end. The atrium was suspended in a 20 ml. muscle chamber containing oxygenated modified Krebs solution maintained at 32° C. Atrial contractions were recorded isometrically by means of a Grass FT 0.03 force displacement transducer and recordings of contractile force and rate were made with a Beckman RP Dynograph.
# A resting tension of 1 g. was applied to the atrium and it was allowed to equilibrate for 1 hour.
# Concentration-response curve displacement factors were calculated as follows: [formula] The factor obtained for BL-5641 was then expressed as a ratio of the factor obtained for cimetidine. [formula]
# [3] = test system: gastric acid output; assay: Gastric antisecretory activity in the gastric fistula dog (histamine-induced); assay type: in vivo, dog (beagle); conditions: for Onset of inhibitory effect on gastric acid output: iv
# Protocol: Thomas type [Thomas, J. E., Proc. Soc. exp. Biol. Med., 46, 260 (1941)] stainless steel cannulae are inserted into the stomachs of beagle dogs (10-12 kg.) just orad to the pyloric gland area near the greater curvature to provide a chronic gastric fistula. Animals are allowed to recover for at least two months before any testing is done. Dogs are fasted overnight (~18 hours) with water ad lib prior to each experiment. The dogs are placed in a sling and an eight inch inside needle catheter (C. R. Baird, Inc.) with a 2 inch 17 gauge needle is inserted into a leg vein fior purposes of drug administration. Gastric secretions are collected every 15 minutes by gravity drainage from the opened cannula. […] A modification of the procedure described by Grossman and Konturek, Gastroenterology, 66, 517 (1974) was followed. […] Each 15 minute sample of gastric juice is measured to the nearest 0.5 ml. and titratable acidity against 0.02N NaOH (endpoint pH 7.0) is measured with an Autoburet and pH meter (radiometer). The percent inhibition of acid output is calculated as described in the pylorus ligated rat procedure.
# [4] = test system: gastric acid output; assay: Gastric antisecretory activity in the two hour pylorus ligated (Shay) rat; assay type: in vivo, rat (male Long Evans); conditions: vs cimetidine
# Description: The pyloric ligation procedure in the rat was designed by Shay et al., Gastroenterology, 5, 53 (1945) for the study of perforating gastric ulcers; however, as the method became known, it was also employed as a means of studying rat gastric secretion, Shay et al., Gastroenterology, 26, 906 (1954), Brodie, D. A., Am. J. Dig. […] A modification of this procedure is presently used to evaluate compounds for gastric antisecretory activity.
# Male Long Evans rats, 280-300 gm., are used. The animals are placed in individual cages and fasted for 24 hours with free access to water. Under ether anesthesia, the stomach is reached through a midline incision, and a cotton-thread ligature is placed around the pylorus. After wound closure, ether administration is stopped and either BL-5641, cimetidine or vehicle are administered intraperitoneally in a volume of […]. BL-5641 and cimetidine are solubilized with one equivalent of HCl and brought to the proper volume with water. The animals are returned to their cages from which the water bottles have been removed and two hours later are sacrificed with ether. […] Titratable acid output is calculated in microequivalents by multiplying the volume in milliliters by the acid concentration in milliequivalents per liter. The percent inhibition of acid output is calculated as follows [formula]
# [5] = in vivo, cited from earlier work
# [6] = clinical; cited from earlier work
# [7] = test system: peptic ulcer disease; conditions: Gray et al., Lancet 1977; cited from earlier work
# [8] = test system: H2 receptor; conditions: cited from earlier work
# [9] = test system: gastric secretion; conditions: cited from earlier work
# T1 sequence (P47747 whole entry): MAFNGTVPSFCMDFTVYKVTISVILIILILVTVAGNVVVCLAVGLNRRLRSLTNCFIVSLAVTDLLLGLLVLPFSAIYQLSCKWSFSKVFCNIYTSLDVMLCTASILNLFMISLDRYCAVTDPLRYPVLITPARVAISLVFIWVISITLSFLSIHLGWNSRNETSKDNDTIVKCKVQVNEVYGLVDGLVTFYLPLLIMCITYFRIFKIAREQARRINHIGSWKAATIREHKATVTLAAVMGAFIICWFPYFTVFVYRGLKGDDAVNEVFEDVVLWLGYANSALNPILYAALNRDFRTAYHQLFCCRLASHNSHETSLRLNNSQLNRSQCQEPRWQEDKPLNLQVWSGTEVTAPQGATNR
smiles,measurement,setting,value
NCCc1c[nH]cn1 [Histamine],Effect on contractile rate of guinea pig right atria,[1],concentration-related increases in the contractile rate
same,Histamine concentration at which maximal response occurred,[2]; cumulative histamine addition,30 µM
"C#CCN=C(NC#N)NCCSCc1[nH]cnc1C [BL-5641, N-Cyano-N'-{2-[(4-methyl-5-imidazolyl)methylthio]ethyl}-N""-propargylguanidine]",Duration of activity,"[3]; equal doses, vs cimetidine",longer duration of activity than cimetidine
same,Degree and duration of inhibition,"[3]; equimolar doses, vs cimetidine",consistently greater and of longer duration with BL-5641 than with cimetidine
same,Onset of inhibitory effect on gastric acid output,[3],immediate inhibitory effect on gastric acid output
same,Potency as inhibitor of gastric secretion,[3]; vs cimetidine,more potent and/or longer acting than cimetidine; also recorded: more potent than cimetidine
same,Potency for inhibition of gastric acid output,[4],more potent than cimetidine; also recorded: at least as potent as cimetidine
same,Potency as histamine H2-receptor antagonist,"[2]; isolated guinea pig atria, vs cimetidine",more potent than cimetidine
same,Histamine ED50 (concentration of histamine which increased contractile rate 50% of maximum) after test compound,[2],12.44 µg/mL
CNC(=NC#N)NCCSCc1[nH]cnc1C [Cimetidine],Half-life,[5],relatively short
same,Agranulocytosis,[6],without producing agranulocytosis
same,Effectiveness in treatment of peptic ulcer disease,[7],effective therapeutic agent in the treatment of peptic ulcer disease
same,Onset of inhibitory effect on gastric acid output,[3],immediate inhibitory effect on gastric acid output
same,Histamine ED50 (concentration of histamine which increased contractile rate 50% of maximum) after test compound,[2],1.39 µg/mL
same,H2 antagonist potency/effectiveness,[8],as effective an H2 antagonist as metiamide
CNC(=S)NCCSCc1[nH]cnc1C [Metiamide],Agranulocytosis,[6],toxicity (agranulocytosis)
same,Oral activity,[9]; man,orally active in man
same,H2 antagonist potency/effectiveness,[8],more potent than burimamide
CNC(=S)NCCCCc1cnc[nH]1 [Burimamide],Oral absorption,[5]; po,oral absorption is poor
same,Inhibition of gastric secretion,[9]; animals and man,inhibits gastric secretion in animals and man
same,Clinical effectiveness as H2 receptor antagonist,[9]; clinical,first clinically effective H2 receptor antagonist
same,Mode of antagonism at histamine H2-receptors,"[8]; Black et al., Nature 1972",competitive antagonist
